# In patent US5221682A, “Heteroarylamino- and heteroaryloxypyridinamines and related compounds” (Hoechst-Roussel Pharmaceuticals Incorporated, priority 1991, dated 1993):
# What was measured:
# [1] = test system: mouse ear edema induced by topical application of arachidonic acid; experiment: Arachidonic Acid-Induced Ear Edema (AAEE); format: in vivo, Female Swiss Webster mice; conditions: for AAEE: 1 mg (1.0 mg/ear)
# Protocol: Arachidonic Acid-Induced Ear Edema (AAEE)
# Female Swiss Webster mice topically received vehicle or test compound (1.0 mg/ear) on both ears (10 μl on outer and inner ears). After 30 minutes, the right ear of all groups received arachidonic acid (4 mg/ear) and the left ear received vehicle alone. […] See Young, J. M. et al., Invest. Dermatol., 80, (1983), pp 48-52.
# [2] = test system: ear edema induced by topical application of TPA (phorbol 12-myristate acetate); experiment: TPA-Induced Ear Edema (TPAEE); conditions: for change in vivo at 10 µg/ear: Mus musculus, 5 h, read-out: TPAEE
# Protocol: Female Swiss Webster mice topically received TPA (10 μg/ear) on the right ear and vehicle on the left ear. The test compound (10 μg/ear) was applied to both ears. After five hours, the animals were sacrificed and an ear punch (4 mm) was taken from each ear. The difference in right and left ear punch weights for each animal was determined to assess activity.
# [3] = test system: naja naja (snake venom) phospholipase A2 -induced paw edema; experiment: Phospholipase A2-induced Paw Edema (PIPE); format: in vivo, male Wistar rats; conditions: for PIPE, difference in edema vs. control: 0.1M, rat, subplantar injection, two hours
# Protocol: Phospholipase A2 -induced Paw Edema (PIPE)
# The ability of compounds to prevent naja naja (snake venom) phospholipase A2 -induced paw edema in male Wistar rats (100-125 g) was measured. PLA2 (3 units/paw) alone or with 0.1M of the test compound was injected in the subplantar region of the rat left hindpaw. Immediately subsequent to the injection and at two hours post administration the paw was immersed in a mercury bath, and paw displacement was measured on a recorder via a transducer. […] See Giessler, A. J. et al., Agents and Actions, Vol. 10, Trends in Inflammation Research (1981), p. 195.
# porcine pancreatic PLA2 = target: T1, porcine pancreatic PLA2 (Sus scrofa, UniProt P00592); experiment: In Vitro Phospholipase A2 Assay (PLA2); format: biochemical; conditions: 0.01M; read-out: PLA2 (difference vs. control)
# T1 construct: from tissue; host or cells: porcine pancreas
# T1 sequence (P00592 23-146): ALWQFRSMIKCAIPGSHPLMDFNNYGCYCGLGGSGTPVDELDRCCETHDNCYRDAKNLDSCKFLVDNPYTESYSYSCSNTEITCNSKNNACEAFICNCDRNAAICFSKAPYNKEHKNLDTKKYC
# Protocol: In Vitro Phospholipase A2 Assay (PLA2)
# The ability of a compound to modulate PLA2 activity (cleavage of ^14 C-dipalmitoyl phosphotidylcholine at the 2-position to ^14 C-palmitic acid) was quantitated in this assay. The reaction mixture contained Tris buffer (25 mM), pH 8.0, calcium chloride (2.0 mM), bovine serum albumin (0.5 mg), dipalmitoyl phosphotidylcholine (8×10^-5M), (^14 C-palmitoyl)dipalmitoyl phosphotidylcholine (6×10^3cpm), porcine pancreatic PLA2 (3.2 units) and the test compound. The reaction was run at 37° C. in a shaking incubator. The reaction was quenched and an internal standard was added in order to determine sample recovery. The samples were loaded onto C18 columns, eluted with ethanol, and the radioactivity was then measured. […] See Feyen, J. H. M., et al., Journal of Chromatography 259 (1983), pp. 338-340.
# epidermal DNA synthesis = experiment: Epidermal DNA Synthesis (in vivo DNA); design: species or system HRS/J hairless mice; conditions: topical, hairless mice; for in vivo DNA: 2.5 mg
# Protocol: Epidermal DNA Synthesis (in vivo DNA)
# The influence of compounds on the proliferation of skin was assessed by determining inhibition or stimulation of DNA synthesis. HRS/J hairless mice received topical application of a compound or vehicle alone on the dorsal aspect. After 24 hours, ^3 H-thymidine (25 μCi) was administered by intraperitonal injection. After an additional hour, animals were sacrificed and the dorsal skin was removed. The epidermal layer was peeled from the dermis by heat separation. Unincorporated ^3 H-thymidine was removed by washing successively with trichloroacetic acid and ethanol. Samples were centrifuged at 2,000 rpm and supernatants discarded. The epidermal sheets were then extracted with warm trichloroacetic acid and the supernatants analyzed for ^3 H-thymidine incorporation by scintillation counting and total DNA by a standard colorimetric assay. […] See Lowe, N. J., et al., Arch. Dermatol., 117 (1981), pp. 394-8; and Burton, K., Biochem. J. 62 (1956), pp. 315-22.
# [4] = test system: cultured human epidermal keratinocytes; experiment: Culture Human Keratinocyte DNA Synthesis (in vitro DNA); format: cell-based
# Protocol: Culture Human Keratinocyte DNA Synthesis (in vitro DNA)
# The effect of a compound on the proliferation of cultured human epidermal keratinocytes was measured. After incubation with a test compound for 24 hours, the cultures were pulse-labelled for three hours with 5 μCi of ^3 H-thymidine. The cultures were extracted for DNA successively with trichloroacetic acid and ethanol, and thereafter dissolved with NaOH. The radioactive incorporation of ^3 H-thymidine into DNA was determined.
smiles,measurement,setting,value
"CC(=O)N1CCc2cc(Nc3cnccc3N)ccc21 [1-Acetyl-N-(4-amino-3-pyridinyl)-2,3-dihydro-1H-indol-5-amine]",AAEE,[1],-36%
"Cn1ccc2cc(Nc3c[n+]([O-])ccc3[N+](=O)[O-])ccc21 [1-Methyl-N-(4-nitro-3-pyridinyl)-1H-indol-5-amine, N^5-oxide]",change in vivo at 10 µg/ear,[2],-30%
same,"PIPE, difference in edema vs. control",[3],-41%
same,inhibition at 10000 µM,porcine pancreatic PLA2,66%
"Nc1ccncc1Oc1ccc2[nH]ccc2c1 [3-[(1H-Indol-5-yl)-oxy]-4-pyridinamine, 3-[(1H-Indol-5-yl)oxy]-4-pyridinamine]",in vivo DNA,epidermal DNA synthesis,-37%
same,change in vivo at 10 µg/ear,[2],-42%
same,"PIPE, difference in edema vs. control",[3],-62%
same,inhibition at 10000 µM,porcine pancreatic PLA2,34%
same,AAEE,[1],-50%
"Nc1cnccc1Oc1ccc2[nH]ccc2c1 [4-[(1H-Indol-5-yl)-oxy]-3-pyridinamine, 4-[(1H-Indol-5-yl)oxy]-3-pyridinamine]","PIPE, difference in edema vs. control",[3],-52%
Nc1cnccc1Nc1ccc2[nH]ccc2c1 [N-(3-Amino-4-pyridinyl)-1H-indol-5-amine],inhibition at 10000 µM,porcine pancreatic PLA2,82%
same,AAEE,[1],-37%
O=[N+]([O-])c1cnccc1Nc1ccc2[nH]ccc2c1 [N-(3-Nitro-4-pyridinyl)-1H-indol-5-amine],inhibition at 10000 µM,porcine pancreatic PLA2,36%
Cn1ccc2cc(Nc3cnccc3N)ccc21 [N-(4-Amino-3-pyridinyl)-1-methyl-1H-indol-5-amine],"PIPE, difference in edema vs. control",[3],-42%
same,inhibition at 10000 µM,porcine pancreatic PLA2,62%
Nc1ccncc1Nc1ccc2cn[nH]c2c1 [N-(4-Amino-3-pyridinyl)-1H-indazol-6-amine],inhibition at 10000 µM,porcine pancreatic PLA2,57%
same,AAEE,[1],-35%
Nc1ccncc1Nc1ccc2[nH]ccc2c1 [N-(4-Amino-3-pyridinyl)-1H-indol-5-amine],in vivo DNA,epidermal DNA synthesis,-27%
same,change in vivo at 10 µg/ear,[2],-85%
same,"PIPE, difference in edema vs. control",[3],-67%
same,inhibition at 50 µM,"[4]; 50 μM, 24 hours",81%
same,inhibition at 10000 µM,porcine pancreatic PLA2,87%
same,AAEE,[1],-41%
"Nc1cc[n+]([O-])cc1Nc1cccc2cc[nH]c12 [N-(4-Amino-3-pyridinyl)-1H-indol-7-amine, N^7-oxide]",change in vivo at 10 µg/ear,[2],-38%
same,"PIPE, difference in edema vs. control",[3],-45%
"O=[N+]([O-])c1cc[n+]([O-])cc1Nc1ccc2[nH]ncc2c1 [N-(4-Nitro-3-pyridinyl)-1H-indazol-5-amine, N^5-oxide]",change in vivo at 10 µg/ear,[2],-78%
"O=[N+]([O-])c1cc[n+]([O-])cc1Nc1ccc2cn[nH]c2c1 [N-(4-Nitro-3-pyridinyl)-1H-indazol-6-amine, N^6-oxide]",inhibition at 10000 µM,porcine pancreatic PLA2,83%
"O=[N+]([O-])c1cc[n+]([O-])cc1Nc1ccc2[nH]ccc2c1 [N-(4-Nitro-3-pyridinyl)-1H-indol-5-amine, N^5-oxide]",inhibition at 10000 µM,porcine pancreatic PLA2,71%
"O=[N+]([O-])c1cc[n+]([O-])cc1Nc1cccc2cc[nH]c12 [N-(4-Nitro-3-pyridinyl)-1H-indol-7-amine, N^7-oxide]",change in vivo at 10 µg/ear,[2],-40%
O=[N+]([O-])c1cc[n+]([O-])cc1NC1CCc2ccccc21 (stereo not drawn) [N-(Indan-1-yl)-4-nitro-3-pyridinamine-1-oxide],change in vivo at 10 µg/ear,[2],-65%
O=[N+]([O-])c1cc[n+]([O-])cc1Nc1ccc2c(c1)CCC2 [N-(Indan-5-yl)-4-nitro-3-pyridinamine-1-oxide],change in vivo at 10 µg/ear,[2],-48%
same,AAEE,[1],-44%
"Nc1ccncc1Nc1ccc2c(c1)CCC2 [N^3-(Indan-5-yl)-3,4-pyridinediamine]",change in vivo at 10 µg/ear,[2],-75%
same,AAEE,[1],-49%
"C[C@]12CCC(=O)C=C1CC[C@@H]1[C@@H]2[C@@H](O)C[C@@]2(C)[C@H]1CC[C@]2(O)C(=O)CO [hydrocortisone, reference compound]",ED50 (Standard),"[2]; TPAEE standard, mouse",47 μg/ear
same,ED50 (Standard),"[3]; PIPE standard, rat paw",0.46 M
"COc1ccc2c(c1)c(CC(=O)O)c(C)n2C(=O)c1ccc(Cl)cc1 [indomethacin, reference compound]",ED50 (Standard),epidermal DNA synthesis; in vivo DNA standard,1.75 mg/animal
same,IC50,[4]; read-out: IC50 (Standard),38 µM
same,ED50 (Standard),[1]; AAEE standard,1.5 mg/ear
